Experiment [1] has as its system N2a. Kind of experiment: Induction of apoptosis in mouse Neuro2a cells assessed as fold increase in late apoptotic cells at 1 uM incubated for 24 hrs by Annexin V-FITC/PI staining based analysis. Type of experiment: functional.
Experiment [2] has as its system N2a. Nature of the experiment: Induction of cell cycle arrest in mouse Neuro2a cells assessed as accumulation of cells at G2/M phase at 0.1 uM incubated for 24 hrs by flow cytometric analysis (reference value: 8.0 %). Type of experiment: functional. (A flow cytometer gives signals particle by particle.)
In experiment [3] the test system is N2a. Kind of experiment: Induction of cell cycle arrest in mouse Neuro2a cells assessed as accumulation of cells at S phase at 0.1 uM incubated for 24 hrs by flow cytometric analysis (reference value: 30.5 %). Type of experiment: functional.
For experiment [4], the system named is N2a. Nature of the experiment: Induction of apoptosis in mouse Neuro2a cells assessed as early apoptotic cells at 1 uM incubated for 24 hrs by Annexin V-FITC/PI staining based analysis (reference value: 3.17 %). The format is functional.
Experiment [5] concerns N2a. Nature of the experiment: Induction of apoptosis in mouse Neuro2a cells assessed as necrotic cells at 0.1 uM incubated for 24 hrs by Annexin V-FITC/PI staining based analysis (reference value: 4.33 %). The format is functional.
For experiment [6], the system named is HepG2. Kind of experiment: Induction of cell cycle arrest in human HepG2 cells assessed as accumulation of cells at G0/G1 phase at 0.1 uM incubated for 24 hrs by flow cytometric analysis (reference value: 66.4 %). Type of experiment: functional.
The subject of experiment [7] is HepG2. Kind of experiment: Induction of cell cycle arrest in human HepG2 cells assessed as accumulation of cells at S phase at 0.1 uM incubated for 24 hrs by flow cytometric analysis (reference value: 27.8 %). Type of experiment: functional.
Experiment [8] has as its system N2a. Nature of the experiment: Induction of apoptosis in mouse Neuro2a cells assessed as viable cells at 1 uM incubated for 24 hrs by Annexin V-FITC/PI staining based analysis (reference value: 91.70 %). The settings on record: read-out: Activity. The format is functional.
In experiment [9] the test system is HepG2. Kind of experiment: Induction of cell cycle arrest in human HepG2 cells assessed as accumulation of cells at G2/M phase at 0.1 uM incubated for 24 hrs by flow cytometric analysis (reference value: 6.7 %). The format is functional.
Experiment [10] deals with HCT-116. Kind of experiment: Induction of apoptosis in human HCT-116 cells assessed as viable cells at 1 uM incubated for 24 hrs by Annexin V-FITC/PI staining based flow cytometric analysis (reference value: 90.50 %). Type of experiment: functional. The following applies: read-out: Activity.
Experiment [11] relates to N2a. Kind of experiment: Induction of apoptosis in mouse Neuro2a cells assessed as viable cells at 0.1 uM incubated for 24 hrs by Annexin V-FITC/PI staining based analysis (reference value: 91.70 %). The format is functional. The settings on record: read-out: Activity.
In experiment [12] the test system is N2a. Nature of the experiment: Induction of apoptosis in mouse Neuro2a cells assessed as necrotic cells at 1 uM incubated for 24 hrs by Annexin V-FITC/PI staining based analysis (reference value: 4.33 %). The format is functional.
Experiment [13] deals with HepG2. Kind of experiment: Induction of apoptosis in human HepG2 cells assessed as necrotic cells at 1 uM incubated for 24 hrs by Annexin V-FITC/PI staining based flow cytometric analysis (reference value: 3.02 %). The format is functional.
The subject of experiment [14] is HCT-116. Nature of the experiment: Induction of apoptosis in human HCT-116 cells assessed as early apoptotic cells at 0.1 uM incubated for 24 hrs by Annexin V-FITC/PI staining based flow cytometric analysis (reference value: 1.90 %). Type of experiment: functional.
For experiment [15], the system named is HCT-116. Nature of the experiment: Induction of apoptosis in human HCT-116 cells assessed as late apoptotic cells at 0.1 uM incubated for 24 hrs by Annexin V-FITC/PI staining based flow cytometric analysis (reference value: 6.15 %). The format is functional.
The test system of experiment [16] is HCT-116. Nature of the experiment: Cytotoxicity against human HCT-116 cells assessed as inhibition of cell proliferation incubated for 24 hrs by MTT assay. The format is functional, cell-based. The settings on record: HCT-116, 24 h. On the technique in general: Formazan colour is commonly taken as a measure of viable cells.
For experiment [17], the system named is HepG2. Kind of experiment: Cytotoxicity against human HepG2 cells assessed as inhibition of cell proliferation AT 0.1 to 10 uM incubated for 24 hrs by MTT assay. The format is functional, cell-based. The settings on record: dose 0.1-10 µM.
The test system of experiment [18] is N2a. Kind of experiment: Cytotoxicity against mouse Neuro2a cells assessed as inhibition of cell proliferation at 0.1 to 10 uM incubated for 24 hrs by MTT assay. The following applies: dose 0.1-10 µM. Type of experiment: functional, cell-based.
Experiment [19] relates to N2a. Kind of experiment: Cytotoxicity against mouse Neuro2a cells assessed as inhibition of cell proliferation incubated for 24 hrs by MTT assay. The format is functional, cell-based.
In experiment [20] the test system is HCT-116. Kind of experiment: Cytotoxicity against human HCT-116 cells assessed as inhibition of cell proliferation at 0.1 to 10 uM incubated for 24 hrs by MTT assay. Type of experiment: functional, cell-based. The following applies: dose 0.1-10 µM.

Active and inactive are the calls of the source. The rule behind the calls is not given here.

Consider `C=C1[C@@H](O)[C@@H]2O[C@]3(CC[C@H](/C=C/[C@@H](C)[C@@H]4CC(C)=C[C@@]5(O[C@H](C[C@@](C)(O)C(=O)O)CC[C@H]5O)O4)O3)CC[C@H]2O[C@@H]1[C@@H](O)C[C@H](C)[C@H]1O[C@@]2(CCCCO2)CC[C@H]1C` [OKADAIC ACID], for which the “fold change (FC)” value with N2a [1] was 13.2. Also, the Activity in the experiment with N2a [2] is 13%; in the experiment with N2a [3], 56.6%; in the experiment with N2a [4], 29.01%; with N2a [5], 4.9%; with HepG2 [6] it was 48.5%; in the experiment on HepG2 [7], 36.8%. The Activity came out at 14.6% in the experiment with HepG2 [9]; 0.57% with N2a [12]; 2.92% with HepG2 [13]; 0.8% in the experiment on HCT-116 [14]; 7.55% with HCT-116 [15]. For the same compound, the viability at 1 µM in the experiment on N2a [8] and in the experiment with HCT-116 [10] was 59.7% throughout. Also, the viability at 0.1 µM in the experiment on N2a [11] worked out at 76.4%.
As for `CC(=O)CCCCC[C@@H](O)[C@H](C)C[C@H](C)CC[C@@H]1O[C@H]1C[C@@H]1CC[C@@H](/C=C/C=C/C[C@H](O)C[C@H]2C=C[C@@H](C=C(C)C)O2)O1`, the “fold change (FC)” value with N2a [1] was determined as 30.7. Besides, the IC50 with HCT-116 [16] was 4.4 µM; with N2a [19], 2.8 µM. In addition, the Activity with N2a [2] is 10.4%; with N2a [3], 38.1%; in the experiment on N2a [4], 17.3%; with N2a [5] it was 1.16%; in the experiment with HepG2 [6], 54.5%; with HepG2 [7], 36%. In addition, the Activity in the experiment on HepG2 [9] was 10.5%; in the experiment with N2a [12], 2.85%; in the experiment with HepG2 [13] it was 1.72%; in the experiment with HCT-116 [14], 4.9%; with HCT-116 [15] it was 14.55%. Further, the viability at 1 µM turned out to be 55.1% with N2a [8] and 58.5% with HCT-116 [10]. Further, the outcome in the experiment with HepG2 [17], in the experiment on N2a [18] and with HCT-116 [20] was Active. For the same compound, in the experiment with N2a [11], the viability at 0.1 µM amounted to 76%.

In general, IC50 refers to the concentration that inhibits the measured activity by half.

These data come from ChEMBL document CHEMBL6127104, “Prorocentin-5: A Cytotoxic Polyketide from the Benthic Marine Dinoflagellate Prorocentrum lima” (J Nat Prod, 2024).
